In PubChem BioAssay AID206 (DTP/NCI, 2004):
“And” between values parts separate entries of the source, which are not always exact repeats. Equal entries are not always repeated. Records with an inconclusive call do not appear.

Test system: nude mice, HT29 intrarenal xenograft, tumor weight T/C
Test: NCI In Vivo Anticancer Drug Screen. Data for tumor model HT29;CX-1 Human Adenocarcinoma (MER+) (intrarenal inoculation) in NU/NU Swiss (nude) mice
Details: endpoint: mean tumor weight change, higher = larger tumour
Method in brief: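 Readout: treated/vehicle-control ratio of the measured endpoint (tumor size or survival) in transplanted-tumor mice.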

[1] = dose: 75.0 mg/kg/injection, schedule: Q04DX004 (sc), vehicle: saline with Tween-80
[2] = dose: 150.0 mg/kg/injection, schedule: Q04DX004 (sc), vehicle: saline with Tween-80
[3] = dose: 300.0 mg/kg/injection, schedule: Q04DX004 (sc), vehicle: saline with Tween-80
[4] = dose: 600.0 mg/kg/injection, schedule: Q04DX004 (sc), vehicle: saline with Tween-80
[5] = dose: 2400.0 mg/kg/injection, schedule: Q04DX004 (sc), vehicle: saline with Tween-80
[6] = dose: 100.0 mg/kg/injection, schedule: Q04DX004 (sc), vehicle: suspension in saline
[7] = dose: 200.0 mg/kg/injection, schedule: Q04DX004 (sc), vehicle: suspension in saline
[8] = dose: 100.0 mg/kg/injection, schedule: Q01DX010 (sc), vehicle: saline with Tween-80
[9] = dose: 200.0 mg/kg/injection, schedule: Q01DX010 (sc), vehicle: saline with Tween-80
[10] = dose: 2.0 mg/kg/injection, schedule: Q01DX010 (sc), vehicle: saline
[11] = dose: 4.0 mg/kg/injection, schedule: Q01DX010 (sc), vehicle: saline
[12] = dose: 8.0 mg/kg/injection, schedule: Q01DX010 (sc), vehicle: saline
[13] = dose: 400.0 mg/kg/injection, schedule: Q01DX010 (sc), vehicle: saline with Tween-80
[14] = dose: 300.0 mg/kg/injection, schedule: Q04DX004 (sc), vehicle: Klucel (hydroxypropylcellulose) (HPC)
[15] = dose: 600.0 mg/kg/injection, schedule: Q04DX004 (sc), vehicle: Klucel (hydroxypropylcellulose) (HPC)
[16] = dose: 1200.0 mg/kg/injection, schedule: Q04DX004 (sc), vehicle: Klucel (hydroxypropylcellulose) (HPC)
[17] = dose: 200.0 mg/kg/injection, schedule: Q04DX004 (sc), vehicle: saline with Tween-80
[18] = dose: 400.0 mg/kg/injection, schedule: Q04DX004 (sc), vehicle: saline with Tween-80

CC(=O)ON(C(C)=O)c1ccc(C(N)=O)cc1
T/C [1]: 83 % of control
T/C [2]: 77 % of control
T/C [3]: 60 % of control
T/C [4]: 71 % of control and 78 % of control
T/C (dose: 1200.0 mg/kg/injection, schedule: Q04DX004 (sc), vehicle: saline with Tween-80): 103 % of control
T/C [5]: 61 % of control

O=C1NC(O)c2ccccc2O1 (stereo not drawn)
T/C [6]: 68 % of control
T/C [7]: 115 % of control
T/C (dose: 400.0 mg/kg/injection, schedule: Q04DX004 (sc), vehicle: suspension in saline): 50 % of control
T/C (dose: 800.0 mg/kg/injection, schedule: Q04DX004 (sc), vehicle: suspension in saline): 55 % of control

COc1cccc2c1C(=O)c1c(O)c3c(c(O)c1C2=O)C[C@@](O)(/C(C)=N/NC(=O)c1ccc(Cl)cc1)C[C@@H]3OC1CC(N)C(O)C(C)O1 (stereo partly drawn)
T/C (dose: 10.0 mg/kg/injection, schedule: Q04DX004 (sc), vehicle: water): 88 % of control
T/C (dose: 20.0 mg/kg/injection, schedule: Q04DX004 (sc), vehicle: water): 39 % of control
T/C (dose: 80.0 mg/kg/injection, schedule: Q04DX004 (sc), vehicle: water): 25 % of control

N=C(N)SCc1c2ccccc2c(CSC(=N)N)c2ccccc12
T/C (dose: 25.0 mg/kg/injection, schedule: Q04DX004 (sc), vehicle: suspension in saline): 69 % of control
T/C (dose: 50.0 mg/kg/injection, schedule: Q04DX004 (sc), vehicle: suspension in saline): 72 % of control
T/C [6]: 52 % of control
T/C [7]: 75 % of control

CCN(CC)CCCC(C)Nc1c2ccc(Cl)cc2nc2ccc(OC)cc12 (stereo not drawn)
T/C (dose: 50.0 mg/kg/injection, schedule: Q01DX010 (sc), vehicle: saline with Tween-80): 75 % of control
T/C [8]: 91 % of control
T/C [9]: 38 % of control

NC(=S)c1cn(C2OC(CO)C(O)C2O)c2ncnc(N)c12 (stereo not drawn)
T/C (dose: 6.25 mg/kg/injection, schedule: Q04DX004 (sc), vehicle: suspension in saline): 62 % of control
T/C (dose: 12.5 mg/kg/injection, schedule: Q04DX004 (sc), vehicle: suspension in saline): 79 % of control

COc1cc([C@@H]2c3cc4c(c(O)c3C[C@H]3COC(=O)[C@@H]32)OCO4)cc(OC)c1OC
T/C [10]: 46 % of control
T/C [11]: 58 % of control
T/C [12]: 25 % of control

O=Cc1ccc(C(Cl)(Cl)Cl)cc1
T/C [8]: 121 % of control
T/C [13]: 107 % of control

O=C(O)C1CSCN1 (stereo not drawn)
T/C (dose: 50.0 mg/kg/injection, schedule: Q01DX010 (sc), vehicle: water): 96 % of control
T/C (dose: 100.0 mg/kg/injection, schedule: Q01DX010 (sc), vehicle: water): 105 % of control

S=C(Nc1ccc(Cl)c(Cl)c1)N1c2ccccc2-n2cccc2C1c1cccnc1 (stereo not drawn)
T/C (dose: 200.0 mg/kg/injection, schedule: Q04DX004 (sc), vehicle: Klucel (hydroxypropylcellulose) (HPC)): 52 % of control
T/C (dose: 400.0 mg/kg/injection, schedule: Q04DX004 (sc), vehicle: Klucel (hydroxypropylcellulose) (HPC)): 114 % of control
T/C (dose: 800.0 mg/kg/injection, schedule: Q04DX004 (sc), vehicle: Klucel (hydroxypropylcellulose) (HPC)): 83 % of control

O=c1ssc(=Nc2ccccc2)n1-c1ccccc1
T/C [14]: 88 % of control
T/C [15]: 75 % of control
T/C [16]: 98 % of control
T/C (dose: 2400.0 mg/kg/injection, schedule: Q04DX004 (sc), vehicle: Klucel (hydroxypropylcellulose) (HPC)): 189 % of control

Cc1c(N)nc(C(CC(N)=O)NCC(N)C(N)=O)nc1C(=O)NC(C(=O)NC(C)C(O)C(C)C(=O)NC(C(=O)NCCc1nc(-c2nc(C(=O)NCCCNC(C)c3ccccc3)cs2)cs1)C(C)O)C(OC1OC(CO)C(O)C(O)C1OC1OC(CO)C(O)C(OC(N)=O)C1O)c1cnc[nH]1 (stereo not drawn)
T/C [10]: 64 % of control
T/C [11]: 65 % of control
T/C [12]: 76 % of control
T/C (dose: 16.0 mg/kg/injection, schedule: Q01DX010 (sc), vehicle: saline): 65 % of control

C[C@]12CCC(=O)C=C1CC[C@@H]1[C@@H]2C(=O)C[C@@]2(C)[C@H]1CC[C@]2(O)C(=O)CO
T/C [14]: 55 % of control
T/C [15]: 42 % of control
T/C [16]: 42 % of control

CN(C)P(=O)(Oc1ccccc1)N(C)C
T/C [1]: 183 % of control
T/C [2]: 122 % of control
T/C [3]: 62 % of control
T/C [4]: 40 % of control

NCCc1cc(O)c(O)c(O)c1
T/C (dose: 200.0 mg/kg/injection, schedule: Q04DX004 (sc), vehicle: saline): 92 % of control
T/C (dose: 400.0 mg/kg/injection, schedule: Q04DX004 (sc), vehicle: saline): 120 % of control
T/C (dose: 800.0 mg/kg/injection, schedule: Q04DX004 (sc), vehicle: saline): 101 % of control
T/C (dose: 1600.0 mg/kg/injection, schedule: Q04DX004 (sc), vehicle: saline): 61 % of control

O=NN(CCCl)C(=O)NCCO
T/C (dose: 12.5 mg/kg/injection, schedule: Q04DX004 (sc), vehicle: water): 81 % of control

COC1=C(OC)C(=O)C(C/C=C(\C)CC/C=C(\C)CC/C=C(\C)CC/C=C(\C)CC/C=C(\C)CC/C=C(\C)CC/C=C(\C)CC/C=C(\C)CC/C=C(\C)CCC=C(C)C)=C(C)C1=O
T/C [8]: 113 % of control
T/C [9]: 98 % of control
T/C [13]: 105 % of control
T/C (dose: 800.0 mg/kg/injection, schedule: Q01DX010 (sc), vehicle: saline with Tween-80): 46 % of control

Cc1ccc(N)c(N)c1
T/C [17]: 151 % of control
T/C [18]: 85 % of control
T/C (dose: 800.0 mg/kg/injection, schedule: Q04DX004 (sc), vehicle: saline with Tween-80): 124 % of control

Cc1cc(O)c(N=Nc2ccc(C(=O)O)cc2)cc1C
T/C [4]: 107 % of control
T/C [5]: 154 % of control

Oc1cc2c3c(c1)c1cc4c(cc1c[n+]3CC2)OCO4
T/C (dose: 100.0 mg/kg/injection, schedule: Q04DX004 (sc), vehicle: water): 53 % of control
T/C (dose: 200.0 mg/kg/injection, schedule: Q04DX004 (sc), vehicle: water): 61 % of control
T/C (dose: 400.0 mg/kg/injection, schedule: Q04DX004 (sc), vehicle: water): 73 % of control

C[Si](C)(C)O/C=C1\CCCCC1=O
T/C (dose: 50.0 mg/kg/injection, schedule: Q04DX004 (sc), vehicle: saline with Tween-80): 163 % of control
T/C (dose: 100.0 mg/kg/injection, schedule: Q04DX004 (sc), vehicle: saline with Tween-80): 92 % of control
T/C [17]: 123 % of control
T/C [18]: 65 % of control

COC(=O)[C@@]12OC[C@]34[C@H]([C@@H](O)[C@@H]1O)[C@@]1(C)CC(=O)C(O)=C(C)[C@@H]1C[C@H]3OC(=O)[C@H](OC(=O)/C=C(\C)C(C)C)[C@@H]24
T/C (dose: 0.25 mg/kg/injection, schedule: Q04DX004 (sc), vehicle: saline + alcohol): 67 % of control
T/C (dose: 0.5 mg/kg/injection, schedule: Q04DX004 (sc), vehicle: saline with Tween-80): 83 % of control
T/C (dose: 1.0 mg/kg/injection, schedule: Q04DX004 (sc), vehicle: saline + alcohol): 49 % of control and 62 % of control
T/C (dose: 1.0 mg/kg/injection, schedule: Q04DX004 (sc), vehicle: saline with Tween-80): 89 % of control
T/C (dose: 2.0 mg/kg/injection, schedule: Q04DX004 (sc), vehicle: saline + alcohol): 53 % of control and 65 % of control
T/C (dose: 4.0 mg/kg/injection, schedule: Q04DX004 (sc), vehicle: saline + alcohol): 72 % of control

CCC1CC2CN(CCc3c([nH]c4ccccc34)C(C(=O)OC)(c3cc4c(cc3OC)N(C)C3C(O)(C(=O)OC)C(OC(C)=O)C5(CC)C=CCN6CCC43C65)C2)C1 (stereo not drawn)
T/C (dose: 1.0 mg/kg/injection, schedule: Q04DX004 (sc), vehicle: saline): 209 % of control
T/C (dose: 2.0 mg/kg/injection, schedule: Q04DX004 (sc), vehicle: saline): 164 % of control
T/C (dose: 4.0 mg/kg/injection, schedule: Q04DX004 (sc), vehicle: saline): 58 % of control
T/C (dose: 8.0 mg/kg/injection, schedule: Q04DX004 (sc), vehicle: saline): 68 % of control
